Reference: patent US20260263459A1, “PHTHALAZINONE GSPT1 PROTEIN DEGRADING AGENT AND USE THEREOF” (CHINA PHARMACEUTICAL UNIVERSITY, priority 2023, published 2026)

Tests used:
KG-1 cells = assay: Antiproliferative activity against KG-1 cells (CCK8); type: cell-based; details: Homo sapiens, 72 h incubation, CCK8 method
Description: KG-1 cells in the logarithmic growth phase were diluted in a culture medium (RPMI+10% FBS) and plated onto 96-well plates at 5000 cells/well, and the plates were incubated in an incubator at 37° C. with 5% CO2 for 24 h. 10 mM stock solutions of the test compounds of the present disclosure in DMSO were prepared and diluted with the culture medium to set 9 concentration gradients. 3 replicate wells were set for each concentration. After compound addition, the plates were incubated in an incubator at 37° C. with 5% CO2 for 72 h. The cell proliferation was assessed using the CCK8 method. The cell growth inhibition IC50 values of the compounds were determined using an enzyme labeling method. The IC50 values were calculated using GraphPad Prism 7 software.
The antiproliferative activity of the compounds against KG-1 cells is shown in Table 2, where A represents IC50≤30 nM, B represents 30<IC50≤300 nM, and C represents IC50>300 nM.

GSPT1 protein = target: T1, GSPT1 protein (Homo sapiens, UniProt P15170+Q96SW2); assay: Degradation of GSPT1 in KG-1 cells (Western blot); type: cell-based; details: compound concentration 200 nM, 4 h incubation
T1 construct: Whole cell lysates were prepared; endogenous in cells; host or cells: KG-1 cells
Description: KG-1 cells were grown in an IMDM culture medium (containing 20% FBS). After centrifugation and counting, the cell concentration was adjusted. The cells were plated onto 6-well plates at 10^6 cells/well, with 1350 μL per well. 150 μL of DMSO and the test compounds of the present disclosure (compound concentration: 200 nM) were added. The plates were incubated in an incubator at 37° C. with 5% CO2 for 4 h. The cells were centrifuged, and the culture medium was discarded. PBS was added to wash the cells and then discarded. Whole cell lysates were prepared using a protease inhibitor cocktail (100×, Fude Biological), a protein phosphatase inhibitor cocktail (100×, Fude Biological), Super Nuclease (Beyotime), and a high-intensity RIPA lysis buffer (Thermo Fisher) and placed on ice for 30 min. After centrifugation, the cell debris precipitates were discarded, and the whole cell lysate supernatants were collected and transferred to new centrifuge tubes. After a BCA protein assay, samples were prepared using a 5× loading buffer (Thermo Fisher). The samples were subjected to protein electrophoresis separation in a 4-20% precast gel (SDS-PAGE gel), transferred to a PVDF membrane, blocked with 5% NFDM/TBST at room temperature for 1 h, incubated overnight with primary antibodies at 4° C., and incubated with a secondary antibody at room temperature for 2 h the next day. Signals were detected using a MINICHEMITM imaging system.
• Anti-GSPT1: Abcam ab234433 • Anti-beta actin: Fude Biological FD0060
• Anti-rabbit peroxidase-linked secondary antibody: Fude Biological FDG007
The degradation effects of the compounds on GSPT1 protein are shown in Table 1, where A represents a GSPT1 protein degradation percentage of no less than 70%, B represents a degradation percentage of less than 70% but no less than 30%, and C represents a degradation percentage of less than 30%.

T1 sequence (P15170 whole entry): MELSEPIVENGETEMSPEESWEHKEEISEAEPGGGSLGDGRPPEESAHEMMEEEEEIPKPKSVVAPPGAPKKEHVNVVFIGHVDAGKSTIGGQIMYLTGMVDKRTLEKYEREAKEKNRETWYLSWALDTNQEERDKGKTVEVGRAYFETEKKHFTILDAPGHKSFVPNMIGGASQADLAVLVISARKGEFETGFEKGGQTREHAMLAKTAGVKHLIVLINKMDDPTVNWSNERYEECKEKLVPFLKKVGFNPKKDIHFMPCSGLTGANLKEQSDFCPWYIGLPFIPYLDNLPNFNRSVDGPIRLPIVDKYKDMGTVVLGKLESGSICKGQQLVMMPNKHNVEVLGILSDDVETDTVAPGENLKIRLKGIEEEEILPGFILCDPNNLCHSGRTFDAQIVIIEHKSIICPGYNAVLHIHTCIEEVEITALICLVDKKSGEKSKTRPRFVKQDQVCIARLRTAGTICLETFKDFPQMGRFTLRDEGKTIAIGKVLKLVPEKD
T1 sequence (Q96SW2 whole entry): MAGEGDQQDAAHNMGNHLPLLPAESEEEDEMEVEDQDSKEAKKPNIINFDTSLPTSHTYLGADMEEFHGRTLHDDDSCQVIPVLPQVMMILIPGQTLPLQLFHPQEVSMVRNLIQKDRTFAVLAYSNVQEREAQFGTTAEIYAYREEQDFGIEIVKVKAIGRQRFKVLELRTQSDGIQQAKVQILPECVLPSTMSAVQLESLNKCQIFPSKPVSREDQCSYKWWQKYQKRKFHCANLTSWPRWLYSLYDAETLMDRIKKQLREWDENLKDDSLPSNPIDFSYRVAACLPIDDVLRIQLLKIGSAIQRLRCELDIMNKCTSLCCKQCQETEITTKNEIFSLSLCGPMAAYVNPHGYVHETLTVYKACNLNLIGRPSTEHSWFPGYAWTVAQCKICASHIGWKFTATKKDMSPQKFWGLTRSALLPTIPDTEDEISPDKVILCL
T1 sequence (Q16531 whole entry partner): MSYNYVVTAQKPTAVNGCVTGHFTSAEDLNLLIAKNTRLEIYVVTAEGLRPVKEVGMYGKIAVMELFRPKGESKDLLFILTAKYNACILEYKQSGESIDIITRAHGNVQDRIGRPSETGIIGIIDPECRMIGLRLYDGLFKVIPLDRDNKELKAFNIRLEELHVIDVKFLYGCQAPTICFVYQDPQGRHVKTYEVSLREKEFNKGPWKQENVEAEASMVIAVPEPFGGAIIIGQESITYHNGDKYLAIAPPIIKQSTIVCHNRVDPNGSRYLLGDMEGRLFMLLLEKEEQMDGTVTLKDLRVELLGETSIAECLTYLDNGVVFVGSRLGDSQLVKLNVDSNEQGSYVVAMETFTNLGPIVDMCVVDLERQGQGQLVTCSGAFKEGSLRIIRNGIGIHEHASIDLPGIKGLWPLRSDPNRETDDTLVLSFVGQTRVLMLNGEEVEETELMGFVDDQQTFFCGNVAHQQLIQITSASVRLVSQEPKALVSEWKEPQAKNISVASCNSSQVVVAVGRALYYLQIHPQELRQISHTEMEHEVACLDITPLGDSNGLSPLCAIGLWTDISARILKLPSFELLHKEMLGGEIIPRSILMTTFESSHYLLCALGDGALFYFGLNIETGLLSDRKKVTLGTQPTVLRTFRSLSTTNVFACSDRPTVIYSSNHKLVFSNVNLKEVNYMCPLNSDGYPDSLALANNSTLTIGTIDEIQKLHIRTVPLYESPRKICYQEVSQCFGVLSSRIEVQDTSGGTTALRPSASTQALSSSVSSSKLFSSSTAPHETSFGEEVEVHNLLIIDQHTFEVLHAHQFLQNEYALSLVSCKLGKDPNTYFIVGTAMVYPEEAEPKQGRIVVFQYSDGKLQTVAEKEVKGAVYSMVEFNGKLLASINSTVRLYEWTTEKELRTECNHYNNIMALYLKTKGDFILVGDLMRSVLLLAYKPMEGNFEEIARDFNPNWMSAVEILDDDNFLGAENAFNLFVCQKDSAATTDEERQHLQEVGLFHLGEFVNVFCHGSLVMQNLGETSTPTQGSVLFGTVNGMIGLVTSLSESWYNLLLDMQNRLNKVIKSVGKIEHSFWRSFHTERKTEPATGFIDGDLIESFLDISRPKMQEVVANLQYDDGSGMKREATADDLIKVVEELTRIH

SMILES | inhibition at 0.2 µM (GSPT1 protein) [%] | IC50 (KG-1 cells) [nM]
O=C1CCC(n2ncc3cc(NC(=O)C4=Cc5ccccc5OC4)ccc3c2=O)C(=O)N1 (centres unmarked) [Compound T-25, N-(2-(2,6-Dioxopiperidin-3-yl)-1-oxo-1,2-dihydrophthalazin-6-yl)-2H-chromene-3-carboxamide] | < 30 | 30 to 300
O=C1CCC(n2ncc3cc(CNC(=O)C4=Cc5cc(F)ccc5OC4)ccc3c2=O)C(=O)N1 (centres unmarked) [Compound T-3, N-((2-(2,6-Dioxopiperidin-3-yl)-1-oxo-1,2-dihydrophthalazin-6-yl)methyl)-6-fluoro-2H-chromene-3-carboxamide] | 30 to 70 | 30 to 300
O=C1CCC(n2ncc3cc(CNC(=O)C4=Cc5cccc(F)c5OC4)ccc3c2=O)C(=O)N1 (centres unmarked) [Compound T-5, N-((2-(2,6-Dioxopiperidin-3-yl)-1-oxo-1,2-dihydrophthalazin-6-yl)methyl)-8-fluoro-2H-chromene-3-carboxamide] | 30 to 70 | ≤ 30

Continued, in another order:

inhibition at 0.2 µM (GSPT1 protein) [%] | SMILES | IC50 (KG-1 cells) [nM]
30 to 70 | O=C1CCC(n2ncc3cc(CNC(=O)C4=Cc5cc(Cl)ccc5OC4)ccc3c2=O)C(=O)N1 (centres unmarked) [Compound T-13, 6-Chloro-N-((2-(2,6-dioxopiperidin-3-yl)-1-oxo-1,2-dihydrophthalazin-6-yl)methyl)-2H-chromene-3-carboxamide] | 30 to 300
30 to 70 | COc1cccc2c1OCC(C(=O)NCc1ccc3c(=O)n(C4CCC(=O)NC4=O)ncc3c1)=C2 (centres unmarked) [Compound T-6, N-((2-(2,6-Dioxopiperidin-3-yl)-1-oxo-1,2-dihydrophthalazin-6-yl)methyl)-8-methoxy-2H-chromene-3-carboxamide] | 30 to 300
30 to 70 | O=C1CCC(n2ncc3cc(CNC(=O)C4COc5ccc(F)cc5C4)ccc3c2=O)C(=O)N1 (centres unmarked) [Compound T-22, N-((2-(2,6-Dioxopiperidin-3-yl)-1-oxo-1,2-dihydrophthalazin-6-yl)methyl)-6-fluorochromane-3-carboxamide] | ≤ 30
30 to 70 | COc1ccc2c(c1)C=C(C(=O)NCc1ccc3c(=O)n(C4CCC(=O)NC4=O)ncc3c1)CO2 (centres unmarked) [Compound T-8, N-((2-(2,6-Dioxopiperidin-3-yl)-1-oxo-1,2-dihydrophthalazin-6-yl)methyl)-6-methoxy-2H-chromene-3-carboxamide] | 30 to 300
